According to ChEMBL document CHEMBL1133424, “Fluoresceinated FKBP12 ligands for a high-throughput fluorescence polarization assay” (Bioorg Med Chem Lett, 2000):

Columns and labels:
[1] = biological target: T1, Peptidyl-prolyl cis-trans isomerase FKBP1A (Homo sapiens, UniProt P62942); assay: Binding affinity of compound for FK506 binding protein 12
[2] = biological target: T1, Peptidyl-prolyl cis-trans isomerase FKBP1A; assay: Concentration required to produce a half-maximal FP signal at against FK506 binding protein 12 at ligand concentration of 100 nM

T1 sequence (P62942 whole entry): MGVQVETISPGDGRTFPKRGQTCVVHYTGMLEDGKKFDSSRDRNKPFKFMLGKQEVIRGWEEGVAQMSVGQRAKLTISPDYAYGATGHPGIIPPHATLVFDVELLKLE

Row | Ki [1] [nM] | IC50 [2] [nM] | Structure (SMILES)
1 | 1300 | 1650 | CCC(C)(C)C(=O)C(=O)N1CCC[C@H]1C(=O)OCCC/N=C(S)/N=C1\C=CC(=C2c3ccc(O)cc3Oc3cc(O)ccc32)C(C(=O)O)=C1
2 | 482 | 980 | CC(C)(C)CC(=O)C(=O)N1CCCC[C@H]1C(=O)OCCC/N=C(S)/N=C1\C=CC(=C2c3ccc(O)cc3Oc3cc(O)ccc32)C(C(=O)O)=C1
3 | 32 | 250 | CC(C)(C)CC(=O)C(=O)N1CCCC[C@H]1C(=O)OC(CCCc1ccccc1)CC/N=C(S)/N=C1\C=CC(=C2c3ccc(O)cc3Oc3cc(O)ccc32)C(C(=O)O)=C1 (stereo partly drawn)
4 | 526 | 410 | COc1cc(C(=O)C(=O)N2CCCC[C@H]2C(=O)OCCCC/N=C(S)/N=C2\C=CC(=C3c4ccc(O)cc4Oc4cc(O)ccc43)C(C(=O)O)=C2)cc(OC)c1OC
